PMC12006963, “Application of Deuterium in an M1 Positive Allosteric Modulator Back-Up Program: The Discovery of VU6045422” (ACS Chemical Neuroscience, 2025)

Assays:
[1] = Plasma protein binding, equilibrium dialysis (human); type: in vitro ADME; details: pH 7.4, read-out: fu,plasma
Experimental: (§1) page 5: Drug Metabolism Methods: In vitro Plasma protein binding and Brain homogenate binding: Determination of fraction unbound (f u) in plasma was conducted in vitro via equilibrium dialysis using HTDialysis (HTD) membrane plates. The top half of the plate was filled with 100 uL of Dubelco’s Phosphate Buffered Saline, pH 7.4 (DPBS). Compounds were diluted into plasma from each species (5 µM final concentration), which was aliquoted in triplicate to the ‘bottom half’ of the prepared HTD plate wells. The HTD plate was sealed and incubated for 6 hours at 37 °C. Following incubation, each well (both top and bottom halves) were transferred (20 µL) to the corresponding wells of a 96- shallow-well (V-bottom) plate. The daughter plates were then matrix-matched (DPBS side wells received equal volume of plasma, and plasma side wells received equal volume of DPBS), and extraction solution (120 µL; acetonitrile containing 50 nM carbamazepine as IS) was added to all wells of both daughter plates to precipitate protein and extract test article. The plates were then sealed and centrifuged (3500 rcf) for 10 minutes at ambient temperature. Supernatant (60 µL) from each well of the daughter plates was then transferred to the corresponding wells of new daughter plates (96-shallow-well, V bottom) containing water (Milli-Q, 60 µL/well), and the plates were sealed in preparation for LC-MS/MS analysis (see LC-MS/MS analysis method below). The unbound fraction (f u) was calculated following the equation below, and mean values for each species were calculated from 3 replicates. […] Fraction unbound for both plasma and brain samples was determined using Equation 4. f = Concbuffer u Concplasma Equation 4 Determination of fraction unbound in plasma. […]

CYP 2D6 = CYP 2D6 (Homo sapiens, UniProt P10635); experiment: CYP inhibition 2D6; type: in vitro ADME
Excerpt: (§2) Table 1 Pharmacology and In Vitro DMPK Profiles of M1 PAMs 1, 3, and 5 | column: 1; 3; 5

rM2-5 = experiment: Muscarinic selectivity, rat M2-5; type: cell-based
CYP 1A2 = molecular target: T1, CYP 1A2 (Homo sapiens, UniProt P05177); experiment: CYP inhibition 1A2; type: in vitro ADME
T1 sequence (P05177 1-516): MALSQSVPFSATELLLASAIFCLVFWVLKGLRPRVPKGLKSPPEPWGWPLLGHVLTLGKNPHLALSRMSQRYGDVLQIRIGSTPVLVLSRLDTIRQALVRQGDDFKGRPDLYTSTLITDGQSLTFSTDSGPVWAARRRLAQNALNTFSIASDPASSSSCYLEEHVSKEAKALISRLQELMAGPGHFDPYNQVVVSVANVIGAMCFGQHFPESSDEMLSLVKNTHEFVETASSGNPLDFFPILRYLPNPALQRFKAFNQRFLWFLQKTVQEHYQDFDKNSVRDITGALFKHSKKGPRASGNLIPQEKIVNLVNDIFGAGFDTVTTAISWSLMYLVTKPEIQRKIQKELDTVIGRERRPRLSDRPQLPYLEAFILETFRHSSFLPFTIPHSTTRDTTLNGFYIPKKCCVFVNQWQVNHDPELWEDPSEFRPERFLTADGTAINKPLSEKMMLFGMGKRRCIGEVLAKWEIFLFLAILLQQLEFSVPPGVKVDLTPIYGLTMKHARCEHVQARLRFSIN
Excerpt: as §2

[2] = Plasma protein binding, equilibrium dialysis (rat); type: in vitro ADME; details: pH 7.4, read-out: fu,plasma
Experimental: as §1

[3] = Hepatocyte metabolite identification (monkey); type: in vitro ADME; details: monkey hepatocytes, 4 h incubation
Experimental: Prior to full characterization of deuterated analogues 3 and 5, they were incubated in rat, dog, monkey, and human hepatocytes, along with 1, to determine the amount of parent remaining, as well as the degree of undesired oxidative metabolites 2, 4, and 6 (Figure 2). […] For the gem-dideutero congener 3, metabolic stability was improved in vitro. […] Thus, in hepatocytes in vitro, the kinetic isotope effect engendered greater metabolic stability of the labile hot spot on the lactam. It remained to be seen if this effect would translate in vivo, but we first had to assess the impact of the deuterated analogues on molecular pharmacology, in vitro DMPK, standard low-dose in vivo DMPK and, if warranted, in vivo efficacy in a rat novel object recognition (NOR) behavioral assay.

CYP 2C9 = CYP 2C9 (Homo sapiens, UniProt P11712); experiment: CYP inhibition 2C9; type: in vitro ADME
Excerpt: as §2

[4] = In vivo IV/PO pharmacokinetics, dog; design: species or system dog (beagle or mongrel); details: for clearance / Vd / half-life: beagle or mongrel, plasma, 1 mg/kg; for clearance: dose iv/po mg/kg: 1 1/3, 5 1/5, read-out: CLp; for Vd: dose iv/po mg/kg: 1 1/3, 5 1/5, read-out: Vss; for half-life: dose iv/po mg/kg: 1 1/3, 5 1/5, read-out: elimination t1/2 (converted); for F (%) po: dose iv/po mg/kg: 1 1/3, 5 1/5

Chain of CYP 2C9 (P11712 whole entry): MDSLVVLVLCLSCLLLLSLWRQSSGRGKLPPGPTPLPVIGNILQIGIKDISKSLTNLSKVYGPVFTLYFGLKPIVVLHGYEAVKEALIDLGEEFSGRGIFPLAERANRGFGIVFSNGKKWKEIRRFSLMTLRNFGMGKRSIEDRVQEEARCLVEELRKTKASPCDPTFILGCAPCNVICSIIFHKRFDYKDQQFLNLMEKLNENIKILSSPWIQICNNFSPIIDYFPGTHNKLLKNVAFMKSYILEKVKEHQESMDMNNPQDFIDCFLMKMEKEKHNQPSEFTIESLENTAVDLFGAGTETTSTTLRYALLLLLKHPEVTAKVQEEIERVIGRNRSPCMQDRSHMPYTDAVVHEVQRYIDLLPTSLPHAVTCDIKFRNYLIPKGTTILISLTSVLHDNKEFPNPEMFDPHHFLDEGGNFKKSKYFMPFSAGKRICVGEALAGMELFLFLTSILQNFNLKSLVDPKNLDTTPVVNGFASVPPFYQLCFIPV
Chain of CYP 2D6 (P10635 whole entry): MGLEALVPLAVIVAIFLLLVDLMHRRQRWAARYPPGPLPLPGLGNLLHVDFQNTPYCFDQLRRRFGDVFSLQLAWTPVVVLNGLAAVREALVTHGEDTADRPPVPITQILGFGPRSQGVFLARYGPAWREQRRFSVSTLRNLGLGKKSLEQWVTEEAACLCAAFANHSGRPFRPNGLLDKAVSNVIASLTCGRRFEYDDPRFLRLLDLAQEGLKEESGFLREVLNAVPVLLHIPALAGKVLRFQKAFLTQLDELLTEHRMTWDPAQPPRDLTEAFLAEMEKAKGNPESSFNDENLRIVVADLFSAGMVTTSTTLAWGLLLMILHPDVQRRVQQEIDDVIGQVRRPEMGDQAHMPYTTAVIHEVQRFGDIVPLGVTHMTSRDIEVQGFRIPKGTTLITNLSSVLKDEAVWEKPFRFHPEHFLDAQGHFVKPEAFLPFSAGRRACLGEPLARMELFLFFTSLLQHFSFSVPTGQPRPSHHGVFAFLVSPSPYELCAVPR

SMILES	fraction unbound at 6 h, 5 µM [1]	IC50 (CYP 2D6)	EC50 (rM2-5)	IC50 (CYP 1A2)	fraction unbound at 6 h, 5 µM [2]	% Total Peak Area, parent remaining [3]	IC50 (CYP 2C9)	clearance [4]	Vd [4]	half-life [4]	F (%) po [4]
[2H]C1([2H])c2ncccc2C(=O)N1Cc1c(F)cc(-c2cccc3nn(C)cc23)cc1F [compound 3]	0.051	> 30 µM	> 30 µM	> 30 µM	0.034	58.5%	17.4 µM				
[2H]C1([2H])c2ncccc2C(=O)N1Cc1c(F)cc(-c2cccc3nn(C([2H])([2H])[2H])cc23)cc1F [compound 5]	0.036	> 30 µM	> 30 µM	> 30 µM	0.026	60.5%	8.8 µM	2.6 mL/min/kg	2 L/kg	10 h	85%
Cn1cc2c(-c3cc(F)c(CN4Cc5ncccc5C4=O)c(F)c3)cccc2n1 [compound 1]	0.034	> 30 µM		14.2 µM	0.028	25.8%	> 30 µM	4 mL/min/kg	2.1 L/kg	7.5 h	100%
